Measured values taken from US20150351390A1, “COMPOSITIONS AND METHODS FOR AUXIN-ANALOG CONJUGATION” (PIONEER HI-BRED INTERNATIONAL, INC., priority 2012, published 2015).

System: Transgenic Arabidopsis lines overexpressing SEQ ID NO:3
Test: Root growth inhibition by 2,4-D, transgenic Arabidopsis
Assay type: in vivo, Arabidopsis thaliana
Method: Arabidopsis (Arabidopsis thaliana) expressing GH3 genes were produced using floral dip methods of Agrobacterium mediated transformation (Clough S J and Bent A F, 1998, Plant J. 16:735-43; Chung M. H., Chen M. K., Pan S. M. 2000. Transgenic Res. 9: 471-476; Weigel D. and Glazebrook J. 2006. In Planta Transformation of Arabidopsis. Cold Spring Harb. Protoc. 4668 3). Briefly, Arabidopsis (Col-0) plants were grown in soil in pots. The first inflorescence shoots were removed as soon as they emerged. Plants were ready for transformation when the secondary inflorescence shoots were about 3 inches tall. Agrobacterium carrying a suitable binary vector were cultured in 5 mL LB medium at 28° C. with shaking at 200 rpm for two days. 1 mL of the culture was then inoculated into 200 ml fresh LB media and incubated again with vigorous agitation for an additional 20-24 hours at 28° C. The Agrobacterium culture was then subjected to centrifugation at 6000 rpm in a GSA rotor (or equivalent) for 10 minutes. The pellet was resuspended in 20-100 mL of spraying medium containing 5% (wt/v) sucrose and 0.01-0.2% (v/v) Silwet L-77. The Agrobacterium suspension was transferred into a hand-held sprayer for spraying onto inflorescences of the transformation-ready Arabidopsis plants. The sprayed plants were covered with a humidity dome for 24 hours before the cover was removed for growth under normal growing conditions. Seeds were harvested. Screening of transformants was performed under sterile conditions. Surface sterilized seeds were placed onto MS-Agar plates (Phyto Technology labs Prod. No. M519) containing appropriate selective antibiotics (kanamycin 50 mg/L, hygromycin 20 mg/L, or bialaphos 10 mg/L). Anti-Agrobacteirum antibiotic timentin was also included in the media. Plates were cultured at 21° C. at 16 hr light for 7-14 days. Transgenic events harboring GH3 genes were germinated and transferred to soil pots in the greenhouse for evaluation of herbicide tolerance.
A selectable marker gene used to facilitate Arabidopsis transformation was a chimeric gene composed of the 35S promoter from Cauliflower Mosaic Virus (Odell et al. 1985. Nature 313:810-812), the bar gene from Streptomyces hygroscopicus (Thompson et al., 1987. EMBO J. 6:2519-2523), and the 3′UBQ14 terminator region from Arabidopsis (Callis et al., 1995. Genetics 139 (2), 921-939). Another visual selectable marker gene used to facilitate Arabidopsis transformation was a chimeric gene composed of the UBQ promoter from soybean (Xing et al., 2010. Plant Biotechnology Journal 8:772-782), the YFP coding sequence, and the 3′ region of the nopaline synthase gene from the T-DNA of the Ti plasmid of Agrobacterium tumefaciens. Bialophos was used as the selection agent during the transformation process. GH3 genes were expressed with a constitutive promoter, for example, the Arabidopsis UBQ10 promoter (Norris et al., 1993. Plant Mol Biol 21:895-906) or UBQ3 promoter (Norris et al., 1993. Plant Mol Biol 21:895-906) for strong or moderate expression, a GH3 coding sequence, and the 3′ terminator region of the French bean phaseolin gene (Sun et al., 1981. Nature 289:37-41; Slightom et al., 1983. Proc. Natl. Acad. Sci. U.S.A. 80 (7), 1897-1901)
Seeds of Arabidopsis ecotype Columbia (Col-0) and GH3 transgenic events were surface sterilized with 70% (v/v) ethanol for 5 minutes and 10% (v/v) bleach for 15 minutes. After being washed three times with distilled water, the seeds were incubated at 4° C. for 4 days. The seeds were then germinated on 1× Murashige and Skoog (MS) medium with a pH of 5.7, 3% (w/v) sucrose, and 0.8% (w/v) agar. After incubation for 3.5 days, the seedlings were transferred to the basal medium containing B5 vitamin, 3% (w/v) sucrose, […] MES (pH 5.7), 1.2% (w/v) agar, and filter sterilized auxin herbicides 2,4-D or dicamba was added to the media at 60° C. […] The concentrations of dicmaba were 0 μM, 1.0 μM, 5.0 μM, 7.0 μM, and 10 μM. […]

## O=C(O)COc1ccc(Cl)cc1Cl [2,4-D, 2,4-dichlorophenoxyacetic acid]
Line #1, 10 nM 2,4-D
  Percentage of the average root length compared with 0 nM 2,4-D treatment: 80%
Line #1, 100 nM 2,4-D
  Percentage of the average root length compared with 0 nM 2,4-D treatment: 43%
Line #2, 10 nM 2,4-D
  Percentage of the average root length compared with 0 nM 2,4-D treatment: 83%
Line #2, 100 nM 2,4-D
  Percentage of the average root length compared with 0 nM 2,4-D treatment: 36%
Line #3, 10 nM 2,4-D
  Percentage of the average root length compared with 0 nM 2,4-D treatment: 88%
Line #3, 100 nM 2,4-D
  Percentage of the average root length compared with 0 nM 2,4-D treatment: 63%
Line #4, 10 nM 2,4-D
  Percentage of the average root length compared with 0 nM 2,4-D treatment: 101%
Line #4, 100 nM 2,4-D
  Percentage of the average root length compared with 0 nM 2,4-D treatment: 60%
Line #5, 10 nM 2,4-D
  Percentage of the average root length compared with 0 nM 2,4-D treatment: 76%
Line #5, 100 nM 2,4-D
  Percentage of the average root length compared with 0 nM 2,4-D treatment: 50%
Transgenic line #4, 10 nM 2,4-D, result in words
  Inhibition of root growth by 2,4-D: completely alleviated
